This is an account of results in patent US11655235B2, “Pyrrolidine and piperidine compounds” (YUHAN CORPORATION, priority 2019, dated 2023).

In general, IC50 refers to the point on the concentration scale where inhibition reaches its midpoint.

Molecules are shown by their SMILES.

This assay has as its target T1, Recombinant human FAP (Homo sapiens, UniProt Q12884).
T1 construct: purchased R&D systems
T1 sequence (Q12884 1-760): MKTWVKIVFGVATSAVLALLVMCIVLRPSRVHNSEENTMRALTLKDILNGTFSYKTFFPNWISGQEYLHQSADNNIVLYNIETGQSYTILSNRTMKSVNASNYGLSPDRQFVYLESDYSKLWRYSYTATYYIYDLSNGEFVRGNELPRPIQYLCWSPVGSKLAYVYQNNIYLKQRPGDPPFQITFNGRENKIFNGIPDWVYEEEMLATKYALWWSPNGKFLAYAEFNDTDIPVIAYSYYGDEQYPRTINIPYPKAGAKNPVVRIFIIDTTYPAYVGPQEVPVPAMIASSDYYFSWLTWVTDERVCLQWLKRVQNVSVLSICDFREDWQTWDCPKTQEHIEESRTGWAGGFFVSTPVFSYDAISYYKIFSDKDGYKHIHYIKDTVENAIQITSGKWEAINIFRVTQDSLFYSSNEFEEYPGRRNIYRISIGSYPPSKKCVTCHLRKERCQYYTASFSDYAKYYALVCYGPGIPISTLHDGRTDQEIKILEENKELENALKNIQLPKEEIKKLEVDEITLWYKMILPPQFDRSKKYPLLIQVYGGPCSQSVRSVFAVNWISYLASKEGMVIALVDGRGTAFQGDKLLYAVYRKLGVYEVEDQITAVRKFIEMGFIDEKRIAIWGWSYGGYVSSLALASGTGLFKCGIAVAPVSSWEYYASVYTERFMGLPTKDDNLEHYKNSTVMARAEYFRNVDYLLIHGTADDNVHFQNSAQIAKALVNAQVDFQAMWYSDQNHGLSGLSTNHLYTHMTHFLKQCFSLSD
Put plainly: FAP FRET assay, FGF21-sequence FRET peptide substrate. The following applies: FRET peptide with human FGF21 sequence, 6 μM, 37° C. The format is biochemical. In short, it runs like this:
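FRET peptide bearing human FGF21 sequence (6 μM final) cleaved by 10 ng recombinant human FAP at 37° C in HEPES pH 7.2 buffer with NaCl, BSA and EDTA, DMSO up to 0.1%. Signal-rate decrease versus uninhibited control fitted to a four-variable logistic model for IC50.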

For the compound `N#C[C@@H]1C[C@H](F)CN1C(=O)CN1CC[C@H](Nc2cccc3ncccc23)C1` [Example 228, (2S,4S)-4-fluoro-1-[2-[(3S)-3-(5-quinolylamino)pyrrolidin-1-yl]acetyl]pyrrolidine-2-carbonitrile], the IC50 is 3 nM.
On to `N#Cc1cnc2cccc(N[C@H]3CCN(CC(=O)N4CCC[C@H]4C#N)C3)c2c1` [Example 232, 5-[[(3S)-1-[2-oxo-2-[(2S)-2-cyanopyrrolidin-1-yl]ethyl]pyrrolidin-3-yl]amino]quinoline-3-carbonitrile], for which the IC50 stood at 1.8 nM.
`COc1cnc2cccc(N[C@H]3CCN(CC(=O)N4CCC[C@H]4C#N)C3)c2c1` [Example 233, (2S)-1-[2-[(3S)-3-[(3-methoxy-5-quinolyl)amino]pyrrolidin-1-yl]acetyl]pyrrolidine-2-carbonitrile]: the IC50 stood at 0.7 nM.
For the compound `N#C[C@@H]1CCCN1C(=O)CN1CC[C@H](Nc2ccc(F)c3ncccc23)C1` [Example 244, (2S)-1-[2-[(3S)-3-[(8-fluoro-5-quinolyl)amino]pyrrolidin-1-yl]acetyl]pyrrolidine-2-carbonitrile], the IC50 was found to be 5.6 nM.
Under `N#C[C@@H]1CCCN1C(=O)CN1CC[C@H](Nc2ccc(C(F)(F)F)c3ncccc23)C1` [Example 245, (2S)-1-[2-[(3S)-3-[[8-(trifluoromethyl)-5-quinolyl]amino]pyrrolidin-1-yl]acetyl]pyrrolidine-2-carbonitrile] stands 1.2 nM; under `N#Cc1ccc(N[C@H]2CCN(CC(=O)N3CCC[C@H]3C#N)C2)c2cccnc12` [Example 247, 5-[[(3S)-1-[2-oxo-2-[(2S)-2-cyanopyrrolidin-1-yl]ethyl]pyrrolidin-3-yl]amino]quinoline-8-carbonitrile], 2 nM.
For `N#C[C@@H]1C[C@H](F)CN1C(=O)CN1CC[C@H](Nc2cccc3ncc(F)cc23)C1` [Example 255, (2S,4S)-4-fluoro-1-[2-[(3S)-3-[(3-fluoro-5-quinolyl)amino]pyrrolidin-1-yl]acetyl]pyrrolidine-2-carbonitrile], the IC50 is 1 nM.
Take `COc1ccc(N[C@H]2CCN(CC(=O)N3C[C@@H](F)C[C@H]3C#N)C2)c2cccnc12` [Example 263, (2S,4S)-4-fluoro-1-[2-[(3S)-3-[(8-methoxy-5-quinolyl)amino]pyrrolidin-1-yl]acetyl]pyrrolidine-2-carbonitrile]: the IC50 came to 1.9 nM.
On to `N#C[C@@H]1C[C@H](F)CN1C(=O)CN1CC[C@H](Nc2ccc(OC(F)(F)F)c3ncccc23)C1` [Example 266, (2S,4S)-4-fluoro-1-[2-[(3S)-3-[[8-(trifluoromethoxy)-5-quinolyl]amino]pyrrolidin-1-yl]acetyl]pyrrolidine-2-carbonitrile], for which the IC50 turned out to be 1.2 nM.
Under `N#C[C@@H]1C[C@H](F)CN1C(=O)CN1CC[C@H](Nc2ccc(OCc3ccccc3)c3ncccc23)C1` [Example 268, (2S,4S)-4-fluoro-1-[2-[(3S)-3-[(8-benzyloxy-5-quinolyl)amino]pyrrolidin-1-yl]acetyl]pyrrolidine-2-carbonitrile] stands 0.7 nM; under `N#C[C@@H]1C[C@H](F)CN1C(=O)CN1CCC(Nc2ccc(C(F)(F)F)c3ncccc23)CC1` [Example 334, (2S,4S)-4-fluoro-1-[2-[4-[[8-(trifluoromethyl)-5-quinolyl]amino]-1-piperidyl]acetyl]pyrrolidine-2-carbonitrile], 2.6 nM.
`N#C[C@@H]1C[C@H](F)CN1C(=O)CN1CCC(Nc2ccc(OC(F)(F)F)c3ncccc23)CC1` [Example 347, (2S,4S)-4-fluoro-1-[2-[4-[[8-(trifluoromethoxy)-5-quinolyl]amino]-1-piperidyl]acetyl]pyrrolidine-2-carbonitrile]: the IC50 amounted to 5.7 nM.
Regarding `COc1cnc2cccc(NC3CCN(CC(=O)N4C[C@@H](F)C[C@H]4C#N)CC3)c2c1` [Example 348, (2S,4S)-4-fluoro-1-[2-[4-[(3-methoxy-5-quinolyl)amino]-1-piperidyl]acetyl]pyrrolidine-2-carbonitrile], the IC50 was 3.9 nM.
Turning to `N#C[C@@H]1C[C@H](F)CN1C(=O)CN1CCC(Nc2cccc3ncc(F)cc23)CC1` [Example 349, (2S,4S)-4-fluoro-1-[2-[4-[(3-fluoro-5-quinolyl)amino]-1-piperidyl]acetyl]pyrrolidine-2-carbonitrile], the IC50 was 4 nM.
For `N#C[C@@H]1C[C@H](F)CN1C(=O)CN1CCC(Nc2cccc3cnc(Cl)cc23)CC1` [Example 352, (2S,4S)-1-[2-[4-[(3-chloro-5-isoquinolyl)amino]-1-piperidyl]acetyl]-4-fluoro-pyrrolidine-2-carbonitrile], the IC50 turned out to be 2.5 nM.
Consider `COc1cc2c(NC3CCN(CC(=O)N4C[C@@H](F)C[C@H]4C#N)CC3)cccc2cn1` [Example 355, (2S,4S)-4-fluoro-1-[2-[4-[(3-methoxy-5-isoquinolyl)amino]-1-piperidyl]acetyl]pyrrolidine-2-carbonitrile], for which the IC50 was determined as 2.5 nM.
Turning to `Cc1ccc2nccc(OC3CCN(CC(=O)N4C[C@@H](F)C[C@H]4C#N)CC3)c2c1` [Example 410, (2S,4S)-4-fluoro-1-[2-[4-[(6-methyl-4-quinolyl)oxy]-1-piperidyl]acetyl]pyrrolidine-2-carbonitrile], the IC50 stood at 1.5 nM.
